Reference: the Kinase Knowledgebase extract (Sharma et al. 2016)

Key:
[1] = system: EGFR (human), P00533 [delE746-A750]; settings: hcc827
[2] = system: EGFR (Human), P00533 [T790M/L858R]; settings: h1975
EGFR (Human), P00533 [T790M/L858R], sequence (P00533 whole entry T790M/L858R, looked up): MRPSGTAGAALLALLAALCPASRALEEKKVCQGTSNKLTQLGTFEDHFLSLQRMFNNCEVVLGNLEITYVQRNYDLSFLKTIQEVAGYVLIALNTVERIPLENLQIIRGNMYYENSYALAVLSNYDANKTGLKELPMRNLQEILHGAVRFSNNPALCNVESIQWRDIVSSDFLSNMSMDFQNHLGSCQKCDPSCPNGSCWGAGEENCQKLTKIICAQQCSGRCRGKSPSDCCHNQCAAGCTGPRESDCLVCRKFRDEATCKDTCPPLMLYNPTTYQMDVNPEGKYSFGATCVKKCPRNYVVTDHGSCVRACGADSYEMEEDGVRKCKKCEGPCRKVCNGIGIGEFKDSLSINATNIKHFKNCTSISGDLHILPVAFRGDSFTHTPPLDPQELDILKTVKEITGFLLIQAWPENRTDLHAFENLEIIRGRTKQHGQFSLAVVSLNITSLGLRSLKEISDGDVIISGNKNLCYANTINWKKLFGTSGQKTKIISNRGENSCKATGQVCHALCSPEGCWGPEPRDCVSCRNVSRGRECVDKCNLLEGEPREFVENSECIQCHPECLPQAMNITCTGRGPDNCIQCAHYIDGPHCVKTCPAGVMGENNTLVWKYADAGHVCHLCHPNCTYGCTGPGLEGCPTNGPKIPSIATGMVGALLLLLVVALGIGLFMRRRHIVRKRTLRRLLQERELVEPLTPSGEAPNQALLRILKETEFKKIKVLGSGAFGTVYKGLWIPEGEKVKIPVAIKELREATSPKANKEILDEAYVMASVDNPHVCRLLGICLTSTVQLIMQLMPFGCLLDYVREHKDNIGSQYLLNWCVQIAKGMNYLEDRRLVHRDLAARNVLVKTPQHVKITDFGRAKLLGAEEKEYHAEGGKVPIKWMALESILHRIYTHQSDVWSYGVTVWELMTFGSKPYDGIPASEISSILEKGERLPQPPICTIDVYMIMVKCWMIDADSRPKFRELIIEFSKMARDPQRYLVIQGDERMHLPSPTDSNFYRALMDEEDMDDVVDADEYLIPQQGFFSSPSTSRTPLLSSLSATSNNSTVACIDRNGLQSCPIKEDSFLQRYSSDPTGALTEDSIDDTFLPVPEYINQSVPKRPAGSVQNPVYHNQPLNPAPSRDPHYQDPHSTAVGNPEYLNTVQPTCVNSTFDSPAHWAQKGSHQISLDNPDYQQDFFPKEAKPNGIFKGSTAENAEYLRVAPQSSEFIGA

EGFR (human), P00533 [delE746-A750], sequence (P00533 whole entry, looked up, stated change not applied): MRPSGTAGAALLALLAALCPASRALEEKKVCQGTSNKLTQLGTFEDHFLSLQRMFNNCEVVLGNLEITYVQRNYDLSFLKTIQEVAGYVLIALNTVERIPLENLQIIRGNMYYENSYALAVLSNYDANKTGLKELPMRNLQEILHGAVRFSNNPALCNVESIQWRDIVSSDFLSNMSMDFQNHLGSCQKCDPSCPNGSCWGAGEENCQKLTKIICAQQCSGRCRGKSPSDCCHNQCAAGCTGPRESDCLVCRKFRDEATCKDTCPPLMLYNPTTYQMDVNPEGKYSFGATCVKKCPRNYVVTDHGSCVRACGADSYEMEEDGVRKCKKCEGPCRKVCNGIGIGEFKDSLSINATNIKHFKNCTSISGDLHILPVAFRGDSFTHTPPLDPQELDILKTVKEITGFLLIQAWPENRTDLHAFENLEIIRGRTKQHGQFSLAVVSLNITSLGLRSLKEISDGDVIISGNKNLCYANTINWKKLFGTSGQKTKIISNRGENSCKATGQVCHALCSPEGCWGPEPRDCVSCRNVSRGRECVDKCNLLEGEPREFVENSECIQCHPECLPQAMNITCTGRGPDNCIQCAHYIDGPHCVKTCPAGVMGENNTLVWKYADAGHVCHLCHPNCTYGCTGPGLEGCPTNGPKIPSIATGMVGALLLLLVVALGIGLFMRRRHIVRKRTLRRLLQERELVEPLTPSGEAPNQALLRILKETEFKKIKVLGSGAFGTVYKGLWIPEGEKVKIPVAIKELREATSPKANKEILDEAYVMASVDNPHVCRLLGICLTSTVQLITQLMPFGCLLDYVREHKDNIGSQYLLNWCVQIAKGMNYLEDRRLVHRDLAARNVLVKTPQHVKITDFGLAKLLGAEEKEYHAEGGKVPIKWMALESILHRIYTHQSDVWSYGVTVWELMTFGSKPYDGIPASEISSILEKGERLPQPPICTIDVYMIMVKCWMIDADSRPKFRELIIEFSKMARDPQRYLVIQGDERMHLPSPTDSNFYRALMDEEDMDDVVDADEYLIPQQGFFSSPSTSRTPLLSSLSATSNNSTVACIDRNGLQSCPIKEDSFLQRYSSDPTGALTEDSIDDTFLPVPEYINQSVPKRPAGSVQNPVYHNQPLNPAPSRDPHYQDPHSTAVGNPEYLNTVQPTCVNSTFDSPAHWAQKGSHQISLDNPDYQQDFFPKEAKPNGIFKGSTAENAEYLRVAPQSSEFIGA

C=CC(=O)Nc1cccc(Nc2nc(Nc3ccc(OC)cc3OC)ncc2Cl)c1
GI50 [1]: 500 to 1000 nM

C=CC(=O)Nc1cccc(Oc2nc(Nc3ccc(OC)cc3OC)ncc2Br)c1
GI50 [2]: 500 to 1000 nM

C=CC(=O)Nc1cccc(Nc2nc(Nc3ccccc3OC)ncc2C(F)(F)F)c1
GI50 [2]: 100 to 500 nM
GI50 [1]: 10 to 100 nM

C=CC(=O)Nc1cccc(Nc2nc(Nc3ccc(OC)cc3OC)ncc2Br)c1
GI50 [1]: 100 to 500 nM

C=CC(=O)Nc1cccc(Oc2nc(Nc3ccc(OC)c(OC)c3OC)ncc2Cl)c1
GI50 [2]: 100 to 500 nM
GI50 [1]: 100 to 500 nM

C=CC(=O)Nc1cccc(Nc2nc(Nc3ccc(OC)c(OC)c3OC)ncc2Br)c1
GI50 [1]: 100 to 500 nM

C=CC(=O)Nc1cccc(Nc2nc(Nc3cccc(OC)c3OC)ncc2C(F)(F)F)c1
GI50 [1]: 500 to 1000 nM

C=CC(=O)Nc1cccc(Oc2nc(Nc3ccc(OC)cc3OC)ncc2C(F)(F)F)c1
GI50 [2]: 100 to 500 nM
GI50 [1]: 100 to 500 nM

C=CC(=O)Nc1cccc(Nc2nc(Nc3ccc(OC)c(OC)c3OC)ncc2C(F)(F)F)c1
GI50 [2]: 100 to 500 nM
GI50 [1]: 10 to 100 nM

C=CC(=O)Nc1cccc(Oc2nc(Nc3ccc(OC)c(OC)c3OC)ncc2C(F)(F)F)c1
GI50 [2]: 100 to 500 nM
GI50 [1]: 100 to 500 nM

C=CC(=O)Nc1cccc(Oc2nc(Nc3ccccc3OC)ncc2F)c1
GI50 [1]: 100 to 500 nM

C=CC(=O)Nc1cccc(Oc2nc(Nc3ccccc3OC)ncc2C(F)(F)F)c1
GI50 [1]: 100 to 500 nM

C=CC(=O)Nc1cccc(Nc2nc(Nc3ccccc3OC)ncc2Br)c1
GI50 [2]: 500 to 1000 nM
GI50 [1]: 500 to 1000 nM

C=CC(=O)Nc1cccc(Oc2nc(Nc3cccc(OC)c3OC)ncc2Br)c1
GI50 [2]: 500 to 1000 nM
GI50 [1]: 500 to 1000 nM

C=CC(=O)Nc1cccc(Nc2nc(Nc3ccccc3OC)ncc2Cl)c1
GI50 [1]: 500 to 1000 nM
